Results on 5 compounds are retold here after patent publication US20240245793A1, “PSD-95 INHIBITORS AND USES THEREOF” (priority 2021, published 2024).

The subject of one data set is pMCAO mice. As to conditions: cited from earlier work; for neuroprotective properties: mice, pMCAO, same experimental conditions and dose (3 nmol/g).
A short description of data set [1]: In vitro plasma stability in undiluted pooled human plasma. The data set is classed as in vitro ADME. As to conditions: for T1/2: 100 μM ligand, 37° C., mean ± SEM (Table 13, FIG. 10). Here is the method: At selected time points during the incubation, the ligands were extracted from the assay matrix by adding assay matrix to 6M Urea followed by precipitation using 20% TCA in acetone. After overnight incubation, the samples were filtered and analysed by UPLC to determine the amount of ligand remaining. LC-MS analysis was performed to confirm ligand integrity and identify cleavage sites.

For data set [2], the target named is T1, plasmin (Homo sapiens, UniProt P00747).
T1 construct: Tissue plasminogen factor (tPA), which generates plasmin from plasminogen
T1 sequence (P00747 581-810 limits assumed, species assumed): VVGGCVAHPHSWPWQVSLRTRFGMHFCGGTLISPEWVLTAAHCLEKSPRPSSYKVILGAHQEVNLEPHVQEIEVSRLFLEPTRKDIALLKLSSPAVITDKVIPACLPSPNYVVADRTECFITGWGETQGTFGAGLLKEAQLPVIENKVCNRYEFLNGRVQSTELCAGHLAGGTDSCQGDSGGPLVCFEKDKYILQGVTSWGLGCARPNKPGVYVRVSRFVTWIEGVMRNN
T1 sequence (P00747 97-580 partner limits assumed, species assumed): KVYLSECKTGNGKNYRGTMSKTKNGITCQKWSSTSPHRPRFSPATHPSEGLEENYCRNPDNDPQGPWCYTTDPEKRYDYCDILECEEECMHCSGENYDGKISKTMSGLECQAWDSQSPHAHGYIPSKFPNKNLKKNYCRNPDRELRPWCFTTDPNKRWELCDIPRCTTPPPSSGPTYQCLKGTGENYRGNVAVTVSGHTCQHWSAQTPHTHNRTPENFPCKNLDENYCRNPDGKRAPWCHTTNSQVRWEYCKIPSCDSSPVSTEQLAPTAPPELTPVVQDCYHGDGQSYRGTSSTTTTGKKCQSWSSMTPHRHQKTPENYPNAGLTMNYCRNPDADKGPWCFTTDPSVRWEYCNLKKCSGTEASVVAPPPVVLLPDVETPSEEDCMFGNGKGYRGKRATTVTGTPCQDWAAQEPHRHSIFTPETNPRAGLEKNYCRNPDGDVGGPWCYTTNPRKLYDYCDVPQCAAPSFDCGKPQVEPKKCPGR
The experiment in a line: In vitro plasmin stability assay. The data set is classed as in vitro ADME. Here is the method:
At selected time points during the incubation, the ligands were extracted from 80 μL of assay matrix by treatment with 80 μL of 50% acetonitrile (ACN). The samples were filtered and analysed by UPLC to determine the amount of ligand remaining. LC-MS analysis was performed to confirm ligand integrity and identify cleavage sites.

In a further data set the target is PDZ1-2 of PSD-95 (Homo sapiens, UniProt P78352). The experiment in a line: Fluorescence polarization (FP) competition assay, affinity to PDZ1-2 of PSD-95. The data set is classed as binding. The conditions noted are these: NPEG4-(KETLV)2 fused to polyArg CPP-tags; mean ± SEM, n ≥ 3 (Table 7, FIG. 4). As to the method:
First, a saturation binding curve was obtained to determine KD values for the interaction between a fluorescent dimeric probe and PDZ1-2 of PSD-95. Increasing concentrations of PDZ1-2 (0.015-30 nM) were added to a constant concentration of the probe (0.5 nM). The fluorescence polarization (FP) of the sample was measured at excitation/emission wavelength of 635/670 nm and the generated FP values were fitted to a one site binding model using the software GraphPad Prism. […] The FP values were fitted to a one site competition (variable slope) model in GraphPad prism. The resulting IC50 values were converted to Ki values as described previously by Nikolovska-Coleska et al., Anal. Biochem., 2004, 332, 261).

Another data set concerns the target PDZ1 and PDZ2 of PSD-95. The conditions noted are these: in vitro FP assay; read-out: Ki values towards PDZ1 and PDZ2 of PSD-95; cited from earlier work.
For data set [3], the system named is patients with ischemic stroke undergoing endovascular thrombectomy. The conditions noted are these: cited from earlier work.
For data set [4], the target named is T1, plasmin. As to conditions: plasmin generated by tPA; cited from earlier work.

Where two headings read alike, the source gives them in different places. No end group written: not given here.

Chain of PDZ1-2 of PSD-95 (P78352 61-249 limits assumed): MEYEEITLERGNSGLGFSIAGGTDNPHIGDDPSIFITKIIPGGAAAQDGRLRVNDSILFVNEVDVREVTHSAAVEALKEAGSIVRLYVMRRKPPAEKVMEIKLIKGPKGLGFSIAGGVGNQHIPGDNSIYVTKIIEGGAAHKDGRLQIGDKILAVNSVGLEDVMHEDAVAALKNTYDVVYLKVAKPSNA

`CC[C@H](C)[C@H](NC(=O)CCOCCOCCOCCOCCOCCC(=O)N[C@H](C(=O)N[C@@H](CCC(=O)O)C(=O)N[C@H](C(=O)N[C@@H](CC(=O)O)C(=O)N[C@H](C(=O)O)C(C)C)[C@@H](C)O)[C@@H](C)CC)C(=O)N[C@@H](CCC(=O)O)C(=O)N[C@H](C(=O)N[C@@H](CC(=O)O)C(=O)N[C@H](C(=O)O)C(C)C)[C@@H](C)O` [Compound 1, OPEG4-(IETDV)2]: in the data set with pMCAO mice, the neuroprotective properties entry was “showed no neuroprotective properties”. For the same compound, in the data set with pMCAO mice (mouse, in vivo), the reaching the brain entry is on record as “did not reach the brain”.
With `CC[C@H](C)[C@H](NC(=O)CCOCCOCCN(CCOCCOCCC(=O)N[C@H](C(=O)N[C@@H](CCC(=O)O)C(=O)N[C@H](C(=O)N[C@@H](CC(=O)O)C(=O)N[C@H](C(=O)O)C(C)C)[C@@H](C)O)[C@@H](C)CC)C(=O)[C@H](CCCNC(=N)N)NC(=O)[C@H](CCCNC(=N)N)NC(=O)[C@H](CCCNC(=N)N)NC(=O)[C@H](CCCNC(=N)N)NC(=O)[C@H](CCCNC(=N)N)NC(=O)[C@H](CCCNC(=N)N)NC(=O)[C@H](CCCNC(=N)N)NC(=O)[C@H](CCCNC(=N)N)NC(=O)[C@H](CCCNC(=N)N)NC(C)=O)C(=O)N[C@@H](CCC(=O)O)C(=O)N[C@H](C(=O)N[C@@H](CC(=O)O)C(=O)N[C@H](C(=O)O)C(C)C)[C@@H](C)O` [Compound 35], the T1/2 in data set [1] came to 24 ± 0 h. Also, the half-life at 100 μM at plasmin [2] and on plasmin [2] (isolated enzyme plasmin) was 24.9 ± 1.9 h throughout.
For `CC(=O)N[C@@H](CCCNC(=N)N)C(=O)N[C@@H](CCCNC(=N)N)C(=O)N[C@@H](CCCNC(=N)N)C(=O)N[C@@H](CCCNC(=N)N)C(=O)N[C@@H](CCCNC(=N)N)C(=O)N[C@@H](CCCNC(=N)N)C(=O)N(CCOCCOCCC(=O)N[C@@H](CCCCN)C(=O)N[C@@H](CCC(=O)O)C(=O)N[C@H](C(=O)N[C@@H](CC(C)C)C(=O)N[C@H](C(=O)O)C(C)C)[C@@H](C)O)CCOCCOCCC(=O)N[C@@H](CCCCN)C(=O)N[C@@H](CCC(=O)O)C(=O)N[C@H](C(=O)N[C@@H](CC(C)C)C(=O)N[C@H](C(=O)O)C(C)C)[C@@H](C)O` [Compound 69], in data set [1], the T1/2 came to 24 ± 0 h. Further, affinity at PDZ1-2 of PSD-95 was put at a Ki of 8.6 ± 0.3 nM.
Turning to `CC(=O)N[C@@H](CCCNC(=N)N)C(=O)N[C@@H](CCCNC(=N)N)C(=O)N[C@@H](CCCNC(=N)N)C(=O)N[C@@H](CCCNC(=N)N)C(=O)N(CCOCCOCCC(=O)N[C@@H](CCCCN)C(=O)N[C@@H](CCC(=O)O)C(=O)N[C@H](C(=O)N[C@@H](CC(C)C)C(=O)N[C@H](C(=O)O)C(C)C)[C@@H](C)O)CCOCCOCCC(=O)N[C@@H](CCCCN)C(=O)N[C@@H](CCC(=O)O)C(=O)N[C@H](C(=O)N[C@@H](CC(C)C)C(=O)N[C@H](C(=O)O)C(C)C)[C@@H](C)O` [Compound 73], in data set [1] (human), the half-life (commonly the time needed for the level to fall by half in the phase considered) at 100 μM came out at 15.2 ± 3.6 h. For the same compound, the affinity at PDZ1-2 of PSD-95, expressed as Ki, was 11.1 ± 0.9 nM.
Turning to YGRKKRRQRRRKLSSIESDV [nerinetide], the inhibitory constant (Ki) (in general, a dissociation constant, usually derived from enzyme kinetics or from competition with a known ligand) on PDZ1 and PDZ2 of PSD-95 is 5000 to 10000 nM. Also, the neuroprotective properties entry with pMCAO mice is recorded as “did not show significant neuroprotective properties”. For the same compound, the clinical effect entry in data set [3] (group not receiving alteplase) is “improved functional outcomes, reduced mortality, and reduced infarction volumes”; in data set [3] (patients receiving alteplase), “not effective”. In addition, at plasmin [4], the cleavage by plasmin result was “cleaves nerinetide”.
